# Results: patent US20240409517A1, “ORGANIC COMPOUNDS” (GIVAUDAN SA, priority 2021, published 2024)
# Experiments:
# Assay type in all cases: in vivo
# [1] = tested on: sensory panel; test: Taste in water by a sensory panel
# [2] = tested on: sensory panel; test: Salt enhancement in 0.5% NaCl aqueous solution, sensory panel; conditions: 0.5% NaCl aq. solution with 50 ppm compound, compared with 0.5% NaCl alone
# Excerpt: The solutions were tasted by a sensory panel. Solution A was describes as “salty”.
# Aqueous solutions comprising 0.5% NaCl and 50 ppm of the compounds of example 2-21, respectively, have been prepared and tasted by a sensory panel in comparison with an aqueous solution comprising 0.5% NaCl.
# Aqueous solutions comprising 0.5% NaCl and 50 ppm of the compounds of example 38-58, respectively, have been prepared and tasted by a sensory panel in comparison with an aqueous solution comprising 0.5% NaCl.
# [3] = tested on: sensory panel; test: Salt enhancement in 0.3% NaCl solution at different concentrations, sensory panel
# [4] = tested on: sensory panel; test: Umami enhancement in savoury model solution (NaCl, MSG, Ribotides), sensory panel; conditions: 0.5% NaCl, 0.03% MSG, 0.007% Ribotides with 50 ppm compound, compared with solution A without compound
# Excerpt: The solutions were tasted by a sensory panel. Solution A is a model solution for savoury taste, containing MSG (monosodium glutamate) and Ribotides (IMP/GMP, 50/50 mixture) as savoury taste enhancer.
# Two aqueous solutions have been prepared: • A) 0.5% NaCl, 0.03% MSG, 0.007% Ribotides, and • B) 0.5% NaCl, 0.03% MSG, 0.007% Ribotides and 50 ppm of the compound of example 38-58, respectively.
# [5] = tested on: sensory panel; test: Bitter masking in 0.3% KCl solution, sensory panel; conditions: 0.3% KCl with 50 ppm compound, compared with 0.3% KCl alone
# Excerpt: (§1) The solutions were tasted by a sensory panel.
# [6] = tested on: sensory panel; test: Effect on model broth base, sensory panel; conditions: model broth base with 0.3% NaCl, 50 ppm compound
# Excerpt: A model broth base, comprising 0.3% of NaCl was compared with a sample further comprising 50 ppm of the compound of example 1.
# as §1
# [7] = tested on: sensory panel; test: Effect on cheese sauce, sensory panel; conditions: 50 ppm compound
# Excerpt: The effect of the compound of example 1 on cheese sauce was explored. Therefore, a cheese sauce has been compared by a sensory panel with a sample of the sauce further comprising 50 ppm of the compound of example 1.
# [8] = tested on: sensory panel; test: Effect on potato chips, sensory panel; conditions: potato chips with 1.5% salt, 70 ppm compound
# Excerpt: Potato chips with 1.5% salt have been tasted by a sensory panel with and without additional compound of example 1.
# [9] = tested on: sensory panel; test: Effect on mayonnaise, sensory panel; conditions: commercially available mayonnaise, 70 ppm compound
# Excerpt: Samples of commercially available mayonnaise with and without addition of the compound of example 1 have been compared by a sensory panel.
# [10] = tested on: sensory panel; test: Effect on corn curls with cheese flavor, sensory panel; conditions: 70 ppm compound
# Excerpt: Corn curls with cheese flavor with and without addition of the compound of example 1 have been compared by a sensory panel.
# [11] = tested on: sensory panel; test: Effect on vegan cheese, sensory panel; conditions: vegan cheese with 0.2% cheese parmesan natural flavor, 70 ppm compound
# Excerpt: Samples of vegan cheese comprising 0.2% cheese parmesan natural flavor have been compared with and without the compound of example 1 by a sensory panel.
# [12] = tested on: sensory panel; test: Effect on soy based vegan burger, sensory panel; conditions: 70 ppm compound
# Excerpt: Soy based vegan burgers with and without the compound of example 1 have been tasted by a sensory panel.
# [13] = tested on: sensory panel; test: Effect on processed meat, sensory panel; conditions: 70 ppm compound
# Excerpt: Samples of processed meat with full salt flavor and sodium reduced flavor have been tasted by a sensory panel with and without the compound of example 1.
# Sample 1 was comprising a full salt flavor base.
# Sample 2 was comprising a full salt flavor base and 70 ppm of the compound of example 1.
# Sample 3 was comprising a salt reduced (33.3%) flavor base and a saltiness flavor modulator.comprising KCl.
# Sample 4 was comprising a salt reduced (33.3%) flavor base, a saltiness flavor modulator.comprising KCl, and 70 ppm of the compound of example 1.
smiles,measurement,setting,value
"O=C(/C=C/c1c[nH]cn1)NCCc1c[nH]cn1 [Example 1, (2E)-3-(1H-imidazol-4-yl)-N-[2-(1H-imidazol-4-yl)ethyl]prop-2-enamide]",taste effect in water,"[1]; 50 ppm or higher, noticeable up to 1000 ppm",slight effect of mouth drying
same,taste effect in water,[1]; up to 40 ppm,no effect was noticed
same,taste as such in water,[1]; up to 1000 ppm,"no taste as such was perceived, in particular no saltiness"
same,salty taste versus 0.5% NaCl solution,[2],more salty with a mineralic note
same,upper level at which the salt enhancing effect was perceived,[3],up to 200 ppm
same,salt enhancement in 0.3% NaCl solution,[3]; 1 ppm or higher,"a salt enhancing effect, providing a more lingering, mineralic and fuller salt taste"
same,salt enhancement in 0.3% NaCl solution,[3]; below 1 ppm,No salt enhancement was perceived
same,saltiness and umami versus savoury model solution,[4],strong boost of saltiness and umami
same,bitter and salty taste versus 0.3% KCl solution,[5],less bitter and more salty and mineral
same,acidity of the broth base,[6],The sharp acidity of the broth base was reduced
same,taste versus model broth base,[6],more mineral and salty
same,taste versus plain cheese sauce,[7],"more mineral and salty, with a mineralic linger, and having a natural aged cheese character"
same,taste versus potato chips without compound,[8],a higher salty impact and a lingering effect
same,taste versus pure mayonnaise,[9],instant tingly salty with a mineral linger and enhanced acidity
same,taste versus corn curls without compound,[10],"more salty, lingering and mineralic"
same,taste versus vegan cheese without compound,[11],"more salty and mineral, and the overall taste is lifted"
same,taste versus vegan burger without compound,[12],"more salty, having a mineral linger, contributing well to the perception of a burger"
same,"taste of processed meat, sample 2 versus sample 1",[13]; full salt flavor base,more salty and mineral
same,"taste of processed meat, sample 4 versus sample 1",[13]; salt reduced (33.3%) flavor base with saltiness flavor modulator comprising KCl,"improved salt-peak, increased salinity, prolonged saltiness, significantly reduced bitterness and astringency, and increased salivation"
